33 molecules from patent publication US8710043B2, “TRPM8 antagonists and their use in treatments” (Amgen Inc., priority 2011, dated 2014) can be followed below.

The test concerns the target T1, human TRPM8 (Homo sapiens, UniProt Q7Z2W7).
T1 construct: expressed in transfected cells; host or cells: Chinese hamster ovary (CHO) cells, T-REx tetracycline-inducible system, co-transfected with aequorin
As to the kind of experiment: Luminescence readout assay for measuring intracellular calcium, icilin activation. The class given is cell-based. The following applies: CHO cells expressing human TRPM8, aequorin luminescence, 1 μM icilin activation; read-out: hTRPM8 IC50. The method in brief: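 The read-out was luminescence reporting intracellular calcium, recorded by a CCD-based luminometer. Compounds were preincubated for 2.5 min before agonist challenge with 1 μM icilin. Human TRPM8 was expressed in a stable T-REx CHO line, induced with 0.5 μg/mL tetracycline the day before.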
Background: Calcium assays in cells follow changes in intracellular calcium, usually with a dye or a luminescent sensor.

Counter-ions that a name gives are not always drawn.

T1 sequence (Q7Z2W7 whole entry): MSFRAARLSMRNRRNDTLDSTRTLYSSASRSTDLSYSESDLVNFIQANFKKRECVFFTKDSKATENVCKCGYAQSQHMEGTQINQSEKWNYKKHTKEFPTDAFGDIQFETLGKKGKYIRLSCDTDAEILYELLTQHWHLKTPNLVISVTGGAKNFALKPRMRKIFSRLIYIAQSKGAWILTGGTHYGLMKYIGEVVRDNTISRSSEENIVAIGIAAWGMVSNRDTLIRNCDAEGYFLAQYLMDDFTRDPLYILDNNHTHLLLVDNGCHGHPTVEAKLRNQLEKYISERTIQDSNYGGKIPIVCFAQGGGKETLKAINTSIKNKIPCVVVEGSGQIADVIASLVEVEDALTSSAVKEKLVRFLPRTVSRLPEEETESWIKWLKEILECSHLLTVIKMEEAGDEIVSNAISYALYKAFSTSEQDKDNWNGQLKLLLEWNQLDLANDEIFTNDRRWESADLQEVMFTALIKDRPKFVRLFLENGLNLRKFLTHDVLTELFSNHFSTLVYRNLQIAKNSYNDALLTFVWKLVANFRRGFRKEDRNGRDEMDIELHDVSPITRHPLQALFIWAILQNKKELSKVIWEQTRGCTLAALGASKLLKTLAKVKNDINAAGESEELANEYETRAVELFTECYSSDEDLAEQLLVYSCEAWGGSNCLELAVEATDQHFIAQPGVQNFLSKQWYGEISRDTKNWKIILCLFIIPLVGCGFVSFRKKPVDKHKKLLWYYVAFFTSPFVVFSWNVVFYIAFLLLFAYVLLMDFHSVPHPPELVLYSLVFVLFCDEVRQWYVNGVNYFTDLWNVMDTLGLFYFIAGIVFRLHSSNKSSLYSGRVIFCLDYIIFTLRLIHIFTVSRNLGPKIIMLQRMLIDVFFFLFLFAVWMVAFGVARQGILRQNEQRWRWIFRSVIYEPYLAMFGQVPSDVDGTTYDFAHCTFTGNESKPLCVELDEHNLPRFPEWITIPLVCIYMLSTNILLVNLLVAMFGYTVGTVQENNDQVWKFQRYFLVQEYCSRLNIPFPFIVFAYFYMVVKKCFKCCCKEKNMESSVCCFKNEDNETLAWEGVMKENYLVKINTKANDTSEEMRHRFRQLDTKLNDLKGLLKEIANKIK

For the molecule `CCc1ccc([C@H](NC(=O)c2ccc3cccnc3c2)c2ncccc2C(F)(F)F)cc1` [Example 115, (S)-N-((4-ethylphenyl)(3-(trifluoromethyl)pyridin-2-yl)methyl)quinoline-7-carboxamide], the IC50 turned out to be 0.0562 µM. Then `Cc1ncoc1C(=O)NC(c1ccc(C(F)(F)F)cc1)c1ncccc1F` (stereo not drawn) [Example 221], with 0.105 µM. Regarding `CC(C)(C)Cc1cccnc1[C@@H](NC(=O)c1ccc2ncccc2c1)c1ccc(C(F)(F)F)cc1` [Example 236, (S)-N-((3-neopentylpyridin-2-yl)(4-(trifluoromethyl)phenyl)methyl)quinoline-6-carboxamide], the IC50 was 0.239 µM.

Regarding `Cn1cnc2cc(C(=O)N[C@@H](c3ccc(C(F)(F)F)cc3)c3ncccc3F)ccc21` [Example 394, (S)-N-((3-fluoropyridin-2-yl)(4-(trifluoromethyl)phenyl)methyl)-1-methyl-1H-benzo[d]imidazole-5-carboxamide], the IC50 amounted to 0.0354 µM. Then `Nc1cccnc1C(=O)N[C@@H](c1ccc(C(F)(F)F)cc1)c1ncccc1C(F)(F)F` [Example 144, (S)-3-amino-N-((4-(trifluoromethyl)phenyl)(3-(trifluoromethyl)pyridin-2-yl)methyl)picolinamide], with 0.2 µM; and `Cn1cnc2ccc(C(=O)N[C@@H](c3ccc(C(F)(F)F)cc3)c3ncccc3F)cc21` [Example 395, (S)-N-((3-fluoropyridin-2-yl)(4-(trifluoromethyl)phenyl)methyl)-1-methyl-1H-benzo[d]imidazole-6-carboxamide], with 0.0066 µM. As for `Cn1ccnc1C(=O)N[C@@H](c1ccc(OC(F)(F)F)c(F)c1)c1ncccc1F` [Example 387, (S)-N-((3-fluoro-4-(trifluoromethoxy)phenyl)(3-fluoropyridin-2-yl)methyl)-1-methyl-1H-imidazole-2-carboxamide 2,2,2-trifluoroacetate], the figure is 0.279 µM; as for `O=C(N[C@@H](c1ccc(OC(F)(F)F)cc1)c1ncccc1F)c1ccc2[nH]c(=O)oc2c1` [Example 80, (S)-N-((3-fluoropyridin-2-yl)(4-(trifluoromethoxy)phenyl)methyl)-2-oxo-2,3-dihydrobenzo[d]oxazole-6-carboxamide], 0.0231 µM. `Cc1cc(C(=O)N[C@@H](c2ccc(C(F)(F)F)cc2)c2ncccc2F)ccn1` [Example 53, (S)-N-((3-fluoropyridin-2-yl)(4-(trifluoromethyl)phenyl)methyl)-2-methylisonicotinamide]: the IC50 came out at 0.0455 µM.

With `Cc1cccnc1[C@@H](NC(=O)c1ccc2c(c1)OCC(=O)N2)c1ccc(C(F)(F)F)cc1` [Example 85, (S)-N-((3-methylpyridin-2-yl)(4-(trifluoromethyl)phenyl)methyl)-3-oxo-3,4-dihydro-2H-benzo[b][1,4]oxazine-7-carboxamide], the IC50 is 0.0289 µM. As for `O=C(N[C@@H](c1ccc(C(F)(F)F)cc1)c1ncccc1C(F)(F)F)c1ccc[nH]c1=O` [Example 59, (S)-2-oxo-N-((4-(trifluoromethyl)phenyl)(3-(trifluoromethyl)pyridin-2-yl)methyl)-1,2-dihydropyridine-3-carboxamide], the figure is 0.0416 µM; as for `O=C(N[C@@H](c1ccc(C(F)(F)F)cc1)c1ncccc1F)c1cc2n(n1)CCCO2` [Example 320, (S)-N-((3-fluoropyridin-2-yl)(4-(trifluoromethyl)phenyl)methyl)-6,7-dihydro-5H-pyrazolo[5,1-b][1,3]oxazine-2-carboxamide], 0.132 µM; as for `O=C(N[C@@H](c1ccc(C(F)(F)F)cc1)c1ncccc1F)c1ccc(=O)n(Cc2ccccc2)c1` [Example 371, (S)-1-benzyl-N-((3-fluoropyridin-2-yl)(4-(trifluoromethyl)phenyl)methyl)-6-oxo-1,6-dihydropyridine-3-carboxamide], 0.19 µM.

On to `O=C(Cc1ccccc1)N[C@@H](c1ccc(C(F)(F)F)cc1)c1ncccc1C(F)(F)F` [Example 218, (S)-2-phenyl-N-((4-(trifluoromethyl)phenyl)(3-(trifluoromethyl)pyridin-2-yl)methyl)acetamide], for which the IC50 is 0.23 µM. With `Cc1cccnc1[C@@H](NC(=O)c1ccc(=O)[nH]c1)c1ccc(OC(F)(F)F)cc1` [Example 359, (S)-N-((3-methylpyridin-2-yl)(4-(trifluoromethoxy)phenyl)methyl)-6-oxo-1,6-dihydropyridine-3-carboxamide], the IC50 was 0.0136 µM. Consider `O=C(N[C@@H](c1ccc(OC(F)(F)F)cc1)c1ncccc1F)c1ccc(=O)[nH]n1` [Example 350, (S)-N-((3-fluoropyridin-2-yl)(4-(trifluoromethoxy)phenyl)methyl)-6-oxo-1,6-dihydropyridazine-3-carboxamide], for which the half-maximal inhibitory concentration (IC50) was determined as 0.0227 µM. For `O=C1CCC(C(=O)N[C@@H](c2ccc(C(F)(F)F)cc2)c2ncccc2C(F)(F)F)CN1` (stereo partly drawn) [Example 65, 6-oxo-N-((S)-(4-(trifluoromethyl)phenyl)(3-(trifluoromethyl)pyridin-2-yl)methyl)piperidine-3-carboxamide], the IC50 amounted to 0.245 µM.

With `COc1ncc(C(=O)N[C@@H](c2ccc(C(F)(F)F)cc2)c2ncccc2C(F)(F)F)cn1` [Example 42, (S)-2-methoxy-N-((4-(trifluoromethyl)phenyl)(3-(trifluoromethyl)pyridin-2-yl)methyl)pyrimidine-5-carboxamide], the IC50 is 0.0539 µM.

On to `O=C(NC(c1ccc(OC(F)(F)F)c(F)c1)c1ccc(F)cc1F)c1ccc(=O)[nH]c1` (stereo not drawn) [Example 413, N-((2,4-difluorophenyl)(3-fluoro-4-(trifluoromethoxy)phenyl)methyl)-6-oxo-l,6-dihydropyridine-3-carboxamide], for which the IC50 was determined as 0.197 µM. Then `Cc1ccc(F)c([C@@H](NC(=O)c2ccc(=O)[nH]c2)c2ccc(C(F)(F)F)cc2)n1` [Example 410, (S)-N-((3-fluoro-6-methylpyridin-2-yl)(4-(trifluoromethyl)phenyl)methyl)-6-oxo-1,6-dihydropyridine-3-carboxamide], with 0.0718 µM; and `O=C(N[C@@H](c1ccc(C(F)(F)F)cc1)c1ncccc1F)c1c[nH]c(=O)cn1` [Example 319, (S)-N-((3-fluoropyridin-2-yl)(4-(trifluoromethyl)phenyl)methyl)-5-oxo-4,5-dihydropyrazine-2-carboxamide], with 0.132 µM.

For the molecule `O=C(N[C@@H](c1ccc(C(F)(F)F)cc1)c1ncccc1C(F)(F)F)c1ccc(C(=O)O)nc1` [Example 285, (S)-5-(((4-(Trifluoromethyl)phenyl)(3-(trifluoromethyl)-pyridin-2-yl)methyl)carbamoyl)picolinic Acid 2,2,2-trifluoroacetate], the IC50 is 2.16 µM. Then `O=C(N[C@@H](c1ccc(C(F)(F)F)cc1)c1ncccc1C(F)(F)F)c1ccn2ccnc2c1` [Example 87, (S)-N-((4-(trifluoromethyl)phenyl)(3-(trifluoromethyl)pyridin-2-yl)methyl)imidazo[1,2-a]pyridine-7-carboxamide], with 0.0089 µM. As for `O=C(N[C@@H](c1ccc(C(F)(F)F)cc1)c1ncccc1F)c1ccc2cn[nH]c2c1` [Example 166, (S)-N-((3-fluoropyridin-2-yl)(4-(trifluoromethyl)phenyl)methyl)-1H-indazole-6-carboxamide], the figure is 0.0076 µM; as for `O=C(N[C@@H](c1ccc(C(F)(F)F)cc1)c1ncccc1C(F)(F)F)c1cccc(OC(F)(F)F)c1` [Example 219, (S)-3-(trifluoromethoxy)-N-((4-(trifluoromethyl)phenyl)(3-(trifluoromethyl)pyridin-2-yl)methyl)benzamide], 0.137 µM; as for `O=C(NC(c1ccc(Cl)c(Cl)c1)c1ccccn1)c1ccc2cnccc2c1` (stereo not drawn) [Example 247, N-((3,4-dichlorophenyl)(pyridin-2-yl)methyl)isoquinoline-6-carboxamide bis-hydrochloride], 0.0427 µM.

Consider `O=C(N[C@@H](c1ccc(OC(F)(F)F)c(F)c1)c1ncccc1F)c1cc2[nH]c(=O)oc2cn1` [Example 437, (S)—N-((3-Fluoro-4-(trifluoromethoxy)phenyl)(3-fluoropyridin-2-yl)methyl)-2-oxo-1,2-dihydrooxazolo[5,4-c]pyridine-6-carboxamide], for which the IC50 was found to be 0.225 µM. Then `COc1ccc([C@H](NC(=O)c2ccc3cccnc3c2)c2ncccc2C(F)(F)F)cc1F` [Example 25, (S)-N-((3-fluoro-4-methoxyphenyl)(3-(trifluoromethyl)pyridin-2-yl)methyl)quinoline-7-carboxamide], with 0.0368 µM; and `Cn1ccnc1C(=O)N[C@@H](c1ccc(C(F)(F)F)cc1)c1ncccc1C(F)(F)F` [Example 146, (S)-1-methyl-N-((4-(trifluoromethyl)phenyl)(3-(trifluoromethyl)pyridin-2-yl)methyl)-1H-imidazole-2-carboxamide], with 0.18 µM.

Take `O=C(N[C@@H](c1ccc(C(F)(F)F)cc1)c1ncccc1C(F)(F)F)c1cccc(I)c1` [Example 117, (S)-3-iodo-N-((4-(trifluoromethyl)phenyl)(3-(trifluoromethyl)pyridin-2-yl)methyl)benzamide]: the IC50 stood at 0.07 µM.

Regarding `O=C1Cc2cc(C(=O)N[C@@H](c3ccc(OC(F)(F)F)c(F)c3)c3ncccc3F)ccc2N1` [Example 346, (S)-N-((3-fluoro-4-(trifluoromethoxy)phenyl)(3-fluoropyridin-2-yl)methyl)-2-oxoindoline-5-carboxamide], the IC50 was determined as 0.0111 µM. As for `COc1cccnc1[C@@H](NC(=O)c1ccc2cccnc2c1)c1ccc(C(F)(F)F)cc1` [Example 28, (S)-N-((3-methoxypyridin-2-yl)(4-(trifluoromethyl)phenyl)methyl)quinoline-7-carboxamide], the figure is 0.194 µM; as for `O=C(N[C@@H](c1cnc2c(Cl)cccc2c1)c1ncccc1C(F)(F)F)c1ccc2cccnc2c1` [Example 7, (S)-N-((8-chloroquinolin-3-yl)(3-(trifluoromethyl)pyridin-2-yl)methyl)quinoline-7-carboxamide], 0.0758 µM.

As usually defined, the IC50 is the concentration that gives 50% inhibition.
